Results reported in patent US20070202547A1, “Methods For Detecting Substances Which Bind To The Amyloid Precursor Protein Or Beta Amyloid Fragments, And Binding Compounds” (priority 2004, published 2007).

Legend:
BACE2 [1] = molecular target: T1, BACE2 (Homo sapiens, UniProt P05067, A673V/D672E/K670N/M671F); assay: BACE2 cleavage of APP at the beta-secretase cleavage site (ALPHA); format: biochemical; details: MBP-biotinylated APP fusion protein with NFEV site, pH 4.5, 30 minutes
T1 construct: IC50, BACE2 cleavage of APP at the beta-secretase cleavage site; other: MBP-biotinylated APP fusion protein with NFEV s; activity against BACE2 cleavage of APP at the beta-secretase position; other: result in words; biotin label
Experimental: (§1) The effect of Examples 1-4 on cleavage of APP at the beta-secretase cleavage site was assayed as follows:
(§2) • 25 μL 0.2 M Sodium Acetate, pH 4.5 • 10 μL 10× protease inhibitor cocktail (Roche, cat # 1836153) • 10 μL Bovine Serum Albumin (1 mg/mL solution) • 4 μL 5% CHAPS • 1 μL EDTA (150 mM, pH 4.5) • 2 μL DF • 4 μL MBP(Maltose binding protein)—biotininylated APP fusion protein containing the NFEV BACE cleavage site (bacterially expressed, 10 μM solution) • 1 μL DMSO or compound dissolved in DMSO • 2 μL BACE2 (CHO cell expressed protein, 250 nM) • 41 μL distilled water The reactions were incubated at 37° C. for 30 minutes, and were then quenched with 4 μL 1 M TrisHCl, pH 8.0. Detection of MBP Biotin APP(NF) Cleavage Product using ALPHA ALPHA Assay Mix was Prepared as Follows: • 20 μL Streptavidin Donor Beads (from AlphaScreen General IgG (Protein A) Detection Kit Perkin Elmer Life Sciences); 10,000 pts (Part Number 6760617M) • 20 μL Protein A Acceptor beads (from AlphaScreen General IgG (Protein A) Detection Kit Perkin Elmer Life Sciences); 10,000 pts (Part Number 6760617M) • 3.7 μL Affinity purified anti-NF antibody (203 μg/mL) (described in WO 02/094985) • 4.5 mL 0.1% BSA in PBS • 4 μL of quenched reaction mixture was combined with 46 μL of the assay mix. The reactions were incubated at room temperature overnight and read using the ALPHAQuest plate reader.

BACE2 [2] = molecular target: T2, BACE2 (Homo sapiens, UniProt P05067, K670N/M671F/D672E/A673V); assay: as above; format: biochemical; details: result in words
T2 construct: IC50, BACE2 cleavage of APP at the beta-secretase cleavage site; other: MBP-biotinylated APP fusion protein with NFEV s; activity against BACE2 cleavage of APP at the beta-secretase position; other: result in words; biotin label
Experimental: as §1, §2

EV-amyloid = molecular target: T3, EV-amyloid (Homo sapiens, UniProt P05067, A673V/D672E); assay: Antibody binding to EV-amyloid, ALPHA sandwich assay; details: 37° C., 1 hour; G2-10 and anti-NH2-EVEFR antibodies
T3 construct: An Aβ variant peptide similar to Aβ 1-40
Description: Compounds interacting with secretase or antibody binding to the Aβ domain of APP (or an APP variant) nay also be expected to interact with Aβ or related amyloidogenic peptides. An Aβ variant peptide similar to Aβ 1-40, but with Glu and Val replacing the N-terminal two amino acids (hereafter referred to as “EV-amyloid”), as described in WO 02/094985 and US 2003/0200555 A1, was used to assess interactions between benzofurans and amyloid peptide. As with full length APP variant in Example 5, masking of antibody binding sites was used to assay the potential interactions.
The assay was carried out as follows:
• 1. A master mix of EV-amyloid peptide in binding buffer was made as follows: 10650 μL 0.1% bovine serum albumin in phosphate buffered saline, 1200 μL 10× Protease Inhibitor cocktail (Roche, cat # 1836153), 30 μL EV amyloid peptide (4 μM in DMSO). • 2. […] Interaction between EV amyloid and antibody was assessed by quantification of the EV amyloid peptide by antibody sandwich assay using ALPHA detection. • 7. […]
The solutions were incubated at room temperature for 1 hour prior to addition to the EV-amyloid binding reaction. • 8. […] The plate was incubated overnight, in the dark, at room temperature, and antibody binding to EV-amyloid was detected via ALPHA Quest.

| Structure (SMILES) | IC50 (BACE2 [1]) [µM] | activity against BACE2 cleavage of APP at the beta-secretase position (BACE2 [2]) | inhibition of antibody binding to EV amyloid (EV-amyloid) |
| --- | --- | --- | --- |
| O=C(O)COc1cc2c(cc1CCCOc1ccccc1)OC(CCc1ccccc1)C2 (stereo not drawn) [Example 1, {[6-(3-phenoxypropyl)-2-(2-phenylethyl)-2,3-dihydro-1-benzofuran-5-yl]oxy} acetic acid] | 9 | capable of inhibiting BACE2 cleavage of APP at the beta-secretase position with similar effectiveness to their inhibition of BACE1 cleavage at the same site | approximately 40% |
| O=C(O)COc1cc2c(cc1CCCOc1ccccc1Cl)OC(CCc1ccccc1)C2 (stereo not drawn) [Example 2, {[6-[3-(2chlorophenoxy)propyl)-2-(2-phenylethyl)-2,3-dihydro-1-benzofuran-5-yl]oxy} acetic] | 4 | capable of inhibiting BACE2 cleavage of APP at the beta-secretase position with similar effectiveness to their inhibition of BACE1 cleavage at the same site | approximately 40% |
